ChEMBL document CHEMBL5724796, “Tm Shift (DSF) assay results for EUbOPEN Chemogenomics Library” (2024)
Values joined by “and” are separate entries in the source; they are usually repeats but may differ in a detail not shown here. Equal entries are not always repeated. Residues, ends and D or L forms follow the SMILES beside them. *: point of attachment. Cbz = O=C(OCc1ccccc1)*; CH2F = FC*

How the values were obtained:
Peregrin (Homo sapiens) = target: T1, Peregrin (Homo sapiens) (UniProt P55201); settings: Compound concentration 20.0 uM
T1 sequence (whole entry): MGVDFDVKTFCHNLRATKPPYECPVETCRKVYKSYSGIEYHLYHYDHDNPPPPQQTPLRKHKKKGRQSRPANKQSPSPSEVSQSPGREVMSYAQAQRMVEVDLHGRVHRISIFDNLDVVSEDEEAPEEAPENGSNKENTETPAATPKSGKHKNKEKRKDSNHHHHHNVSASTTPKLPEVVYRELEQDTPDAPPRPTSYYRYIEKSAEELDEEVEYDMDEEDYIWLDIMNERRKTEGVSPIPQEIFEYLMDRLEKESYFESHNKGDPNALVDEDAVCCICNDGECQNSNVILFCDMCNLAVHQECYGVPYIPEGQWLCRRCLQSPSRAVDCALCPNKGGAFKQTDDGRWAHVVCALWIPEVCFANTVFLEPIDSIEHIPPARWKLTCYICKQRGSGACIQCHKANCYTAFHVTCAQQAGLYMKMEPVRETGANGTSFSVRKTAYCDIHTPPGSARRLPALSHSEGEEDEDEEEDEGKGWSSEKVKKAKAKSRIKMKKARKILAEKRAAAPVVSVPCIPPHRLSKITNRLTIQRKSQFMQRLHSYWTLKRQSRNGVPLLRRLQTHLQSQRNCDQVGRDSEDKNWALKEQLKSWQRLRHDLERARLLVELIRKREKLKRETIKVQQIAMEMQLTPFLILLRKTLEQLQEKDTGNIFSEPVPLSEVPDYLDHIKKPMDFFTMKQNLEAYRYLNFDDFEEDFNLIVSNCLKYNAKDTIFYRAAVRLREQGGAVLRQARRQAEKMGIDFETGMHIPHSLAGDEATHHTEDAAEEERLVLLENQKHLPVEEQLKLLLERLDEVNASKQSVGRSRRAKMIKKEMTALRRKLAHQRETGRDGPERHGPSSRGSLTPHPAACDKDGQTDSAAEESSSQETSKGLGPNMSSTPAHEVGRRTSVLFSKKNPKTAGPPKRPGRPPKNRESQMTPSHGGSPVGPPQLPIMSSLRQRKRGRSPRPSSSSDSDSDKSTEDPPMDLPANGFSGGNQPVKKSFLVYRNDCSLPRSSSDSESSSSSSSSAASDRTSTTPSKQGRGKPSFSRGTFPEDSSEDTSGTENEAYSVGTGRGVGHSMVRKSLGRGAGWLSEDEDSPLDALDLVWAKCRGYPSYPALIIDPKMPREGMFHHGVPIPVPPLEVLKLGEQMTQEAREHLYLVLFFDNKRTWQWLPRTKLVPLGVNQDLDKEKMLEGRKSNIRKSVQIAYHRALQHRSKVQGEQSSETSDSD

[1] = target: Fibroblast growth factor receptor 2 (Homo sapiens) (UniProt P21802); settings: Compound concentration 20.0 uM
Sequence of Fibroblast growth factor receptor 2 (Homo sapiens) (P21802 22-821 limits assumed): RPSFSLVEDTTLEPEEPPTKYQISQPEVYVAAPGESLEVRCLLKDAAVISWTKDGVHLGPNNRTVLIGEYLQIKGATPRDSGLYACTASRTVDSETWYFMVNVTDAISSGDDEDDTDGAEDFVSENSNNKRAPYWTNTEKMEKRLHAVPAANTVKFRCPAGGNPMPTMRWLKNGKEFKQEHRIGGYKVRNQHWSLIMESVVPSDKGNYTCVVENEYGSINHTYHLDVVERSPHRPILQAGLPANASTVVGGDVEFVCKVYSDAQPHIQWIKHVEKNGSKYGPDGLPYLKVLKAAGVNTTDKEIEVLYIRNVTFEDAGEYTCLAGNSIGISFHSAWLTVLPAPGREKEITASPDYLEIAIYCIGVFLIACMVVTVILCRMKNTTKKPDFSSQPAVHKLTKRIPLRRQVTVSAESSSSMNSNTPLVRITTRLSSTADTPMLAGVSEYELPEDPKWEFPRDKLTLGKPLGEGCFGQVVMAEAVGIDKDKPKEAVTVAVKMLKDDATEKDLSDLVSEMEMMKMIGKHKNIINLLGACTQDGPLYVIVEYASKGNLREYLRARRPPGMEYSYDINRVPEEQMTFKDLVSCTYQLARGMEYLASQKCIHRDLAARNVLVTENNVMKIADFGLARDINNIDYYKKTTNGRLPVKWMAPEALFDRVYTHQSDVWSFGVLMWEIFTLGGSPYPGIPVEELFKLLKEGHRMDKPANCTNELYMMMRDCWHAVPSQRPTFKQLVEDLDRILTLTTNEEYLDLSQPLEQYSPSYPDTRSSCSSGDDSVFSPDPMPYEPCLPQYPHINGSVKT
Description: Thermal Shift Assay. Domain: start/stop: T457-E768

SMILES	ΔTm (Peregrin (Homo sapiens))	ΔTm [1]
CC(C)(C)OC(=O)NCCCCCN(CCc1ccccc1)C(=O)n1cc(-c2ccc(OC(F)(F)F)cc2)nn1	1.14 °C	-1.05 °C
C[C@@H]1CN(c2ncc(Cl)c(Nc3ccc4c(c3)n(CCC(C)(C)O)c(=O)n4C)n2)C[C@H](C)C1(F)F	-5.71 °C	-3.16 °C
CC(=O)N[C@@H](CC(=O)O)C(=O)N[C@@H](CCC(=O)O)C(=O)N[C@H](C(=O)N[C@@H](CC(=O)O)C(=O)CCl)C(C)C	-1.75 °C	0.6 °C
O=C(O)[C@@H]1CCCN(C(=O)n2cnc(-c3ccc(-c4cnc(N5CCOCC5)nc4)cc3)n2)[C@H]1c1ccccc1	-0.92 °C	0.15 °C
O=C1c2ccccc2C(=O)c2oc(-c3ccc(F)cc3)nc21	-0.98 °C	0.19 °C
CN(C(=O)CCCOc1ccc2[nH]c(=O)ccc2c1)C1CCCCC1	1.74 °C	-0.58 °C
CCCN(CCC)c1ccc(C=O)cc1Br	-0.41 °C	0.23 °C
CCC(NC(=O)C(CC(C)C)NC(=O)OCc1ccccc1)C(=O)C(=O)NCCCN1CCOCC1 (stereo not drawn)	-1.22 °C	1.24 °C
O=C(NCCCOc1ccc2[nH]c(=O)ccc2c1)N(C1CC1)[C@@H]1CCCC[C@H]1O	1.1 °C	0.24 °C
CCS(=O)(=O)N1CC(CC#N)(n2cc(-c3ncnc4[nH]ccc34)cn2)C1	-1.09 °C	1.48 °C
NC(=S)c1cccc(-c2cn(C3CCN(S(=O)(=O)C(F)(F)F)CC3)c3cc(CNC(=O)C4CNC4)ccc23)c1	5.2 °C	0.25 °C
Cc1cc(OCCCNCC(C)(C)C(N)=O)ccc1Cc1c(O[C@@H]2O[C@H](CO)[C@@H](O)[C@H](O)[C@H]2O)n[nH]c1C(C)C	1.07 °C	-0.15 °C
FC(F)(F)Oc1ccc(Oc2ccnc(N3CCC(NC(=S)Nc4cccnc4)CC3)c2Cl)c(Cl)c1	0.92 °C and 3.5 °C	-3.46 °C and 0.73 °C
Oc1nc(-c2ccc(C(F)(F)F)cc2)nc2c1CSCC2	0.57 °C	-0.47 °C
CCCc1nc(C)c2c(=O)nc(-c3cc(S(=O)(=O)N4CCN(CC)CC4)ccc3OCC)[nH]n12	1.02 °C	0.41 °C
C[C@H]1CO[C@@H]2Cn3cc(C(=O)NCc4ccc(F)cc4F)c(=O)c(O)c3C(=O)N12	2.22 °C	0.45 °C
COCCOCCn1nc2c(c1C)-c1c(Cl)ccc3c1c(C)c(C(=O)O)n3CCCOc1cc(cc3c(F)c(Cl)ccc13)CCc1cc(nn1C)CSC2	0 °C	-5.22 °C
C[C@H](c1nc2c(cnn2C2CCOCC2)c(=O)[nH]1)N1CC(Oc2ccccc2)C1	2.25 °C	-0.05 °C
NC(=O)C(CCCN=C(N)CCl)NC(=O)c1ccccc1 (stereo not drawn)	1.58 °C	-0.58 °C
COc1cccc(Nc2c(C(N)=O)cnc3c(C)cc(S(=O)(=O)c4cccc(C(=O)N(C)C)c4)cc23)c1	-1.59 °C	-0.11 °C
CN(CCOc1ccc(-c2ccc3c(c2)OCO3)cc1C(C)(C)C)CC(=O)O	2.31 °C	-0.25 °C
CNC(=O)Cn1cc(-c2ccc3c(c2)[C@H](F)C[C@]32NC(=O)N(CC(=O)N(Cc3ccc(F)cc3)[C@@H](C)C(F)(F)F)C2=O)cn1	-0.07 °C	-0.18 °C

SMILES	ΔTm (Peregrin (Homo sapiens))	ΔTm [1]
C/C(=N\NC(=O)c1cccc(S(=O)(=O)N2CCOCC2)c1)c1cc(Cl)ccc1O	2.44 °C	-0.21 °C
COc1cccc(OC)c1S(=O)(=O)Nc1noc2cc(Cn3cccn3)cc(OC)c12	-0.57 °C	-3.46 °C
CNCc1ccc(-c2cc3cc(F)cc(C(N)=O)c3o2)cc1	1.32 °C	0.56 °C
CCOc1ccc(Cc2cc([C@]34OC[C@](CO)(O3)[C@@H](O)[C@H](O)[C@H]4O)ccc2Cl)cc1	0.95 °C	0.47 °C
CC(C)Cn1c(=O)n(C)c(=O)c2c(C(=O)N3CC[C@@H](O)C3)c(Cc3ccnc4ccccc34)sc21	0.74 °C	0.61 °C
O=c1[nH][nH]c(=O)c2cc(OCc3ccccc3F)ccc12	2.62 °C	0.22 °C
CC(C)(C)OC(=O)Nc1ccc(CNc2nccc(Nc3cc(C(=O)OC(C)(C)C)[nH]n3)n2)cc1	-1.32 °C	1.22 °C
Fc1ccc(CNc2ncnc3ccc(F)cc23)cc1	1.26 °C	-0.12 °C
CC(C)c1c(-c2ccccc2)[nH]c2c(C#N)cnn2c1=O	1.31 °C	-0.06 °C
C=CCc1cccc(CNc2nc3ccccc3n2CCC)c1O	4.18 °C	0.14 °C
CC(=O)NCC(=O)N1CCC[C@@H]1B(O)O	2.29 °C	0.51 °C
CNC(=O)c1cnc(N2CCC[C@H](N)C2)nc1Nc1cc(C(C)C)nc(C(C)C)c1	-0.82 °C	-3.52 °C
COC(=O)CC(NC(=O)C(C)NC(=O)C(NC(=O)C(CC(=O)OC)NC(=O)C(NC(=O)OCc1ccccc1)C(C)C)C(C)C)C(=O)CF (stereo not drawn) (Cbz-VD(OMe)VAD(OMe)-CH2F; configuration not given here)	2.28 °C	-0.48 °C
CNCCCN1c2ccccc2CCc2ccccc21	1.05 °C	-0.25 °C
O=C(Nc1cc(C(F)F)ns1)Nc1cc(F)ncc1CO	3.9 °C	-0.3 °C
O=C(c1cc(Cc2n[nH]c(=O)c3ccccc23)ccc1F)N1CCn2nc(C(F)(F)F)nc2C1	0.87 °C	-0.57 °C
CNCCC(Oc1ccccc1OC)c1ccccc1 (stereo not drawn)	1.17 °C	0.13 °C
CCCOc1ccc(CCc2nc3cc(-c4c(C)noc4C)ccc3n2CCN2CCOCC2)cc1	-1.09 °C	-0.48 °C
CN(C)NC(=O)CCC(=O)O	0.25 °C	0.18 °C
Cc1ccc2c(c1)nc(/C=C/c1cccc3cccnc13)n2-c1cccc(OCCCN2CCN(C)CC2)c1	0.16 °C	0.24 °C
Cc1cc(/N=N/c2ccc(S(=O)(=O)NC3CCCC3)cc2)c(N)cc1O	7.73 °C	2.06 °C
Cc1cc(C)nc(SCC(=O)Nc2ncc(Cc3cccc4ccccc34)s2)n1	3 °C	-1.85 °C

SMILES	ΔTm (Peregrin (Homo sapiens))	ΔTm [1]
O=C(NCC(=O)N1CCCCC1)Nc1ccc2nnsc2c1	-1.05 °C	0.59 °C
COc1cc2/c(=N/c3ccc(Br)cc3F)nc[nH]c2cc1OCC1CCN(C)CC1	-0.84 °C	5.47 °C
COc1ncc(C)c(-c2ccc3c(c2)[nH]c(=O)c2cnn([C@H]4CCOC4)c23)c1C	0.86 °C	-0.58 °C
CCCCCCCCCCCCC/C=C/[C@@H](O)[C@H](CO)NC(=O)CBr	-2.74 °C	-18.9 °C
Nc1cc2c3c(c1)C(c1ccccc1)=N[C@@H](NC(=O)c1cccnc1)C(=O)N3CC2	0.71 °C	0.08 °C
CC(C)c1ccc(C(=O)N=C(N)N)cc1S(C)(=O)=O	-0.14 °C	-0.34 °C
CC(C)C(=O)SCCCCCCC(=O)Nc1nc(-c2ccccc2)cs1	-1.14 °C	1.03 °C
CNc1nccc(CN(CC2CCNCC2)S(=O)(=O)c2ccc(S(=O)(=O)N(Cc3ccc(Cl)cc3)C3CCCC3)cc2)n1	1.3 °C	-0.24 °C
CCC(=O)N1CCOc2c(cc(-c3cc(OC)cc(OC)c3)cc2C(=O)N[C@H]2CCCN(C)C2)C1	-0.83 °C	0.29 °C
CCC(CC)(NC(=O)C(C)C)C(=O)N[C@@H](CCCNC(=N)N)C(=O)NC1(C(=O)NC(c2ccc(F)cc2)c2ccc(F)cc2)CCCC1	-0.95 °C	-3.44 °C
CC(c1cccc2ccccc12)n1cnc2c(=O)[nH]c(Cc3ccccc3)nc21 (stereo not drawn)	-0.65 °C	-1.64 °C
O=C(O)Cn1nnc(-c2ccc(CN(CCCCOc3ccc(CN4CCCC4)cc3)CCc3ccccc3)cc2)n1	-2.23 °C	-2.96 °C
Cc1cc(-c2ccc3nc(C4CCOCC4)n(CCOC(F)(F)F)c3c2)cn(C)c1=O	4.67 °C	0.33 °C
Cc1cc(C(=O)CN2CCCCC2)c(C)n1-c1ccc(Cl)cc1	-1.17 °C	-0.09 °C
N#Cc1ccc(Nc2cnccc2SCc2ccccc2C(=O)O)c2ccccc12	1.8 °C	0.49 °C
O=C(NC[C@H](O)CN1CCc2ccccc2C1)c1cc(NC2COC2)ncn1	-1.25 °C	0.37 °C
COc1ccc(C(CN(C)C)C2(O)CCCCC2)cc1 (stereo not drawn)	-0.6 °C	0.29 °C
CN1[C@@H]2CC[C@H]1C[C@@H](OC(c1ccc(F)cc1)c1ccc(F)cc1)C2	-0.08 °C	-0.72 °C
CCCSc1nc(N[C@@H]2C[C@H]2c2ccc(F)c(F)c2)c2nnn([C@@H]3C[C@H](OCCO)[C@@H](O)[C@H]3O)c2n1	0.55 °C	-0.32 °C
Cc1[nH]c2c(N3CCCCC3)c(-c3ccccc3)nn2c(=O)c1-c1ccc(O)cc1	-0.91 °C	0.5 °C
